We go through one compound from ChEMBL document CHEMBL3997763 (Medchemcomm, 2016).

Activity calls are given as the source filed them. No cut-off for these calls is given here.

Data set [1] has as its target T1, 3-hydroxy-3-methylglutaryl-coenzyme A reductase (Homo sapiens) (UniProt P04035).
T1 sequence (whole entry): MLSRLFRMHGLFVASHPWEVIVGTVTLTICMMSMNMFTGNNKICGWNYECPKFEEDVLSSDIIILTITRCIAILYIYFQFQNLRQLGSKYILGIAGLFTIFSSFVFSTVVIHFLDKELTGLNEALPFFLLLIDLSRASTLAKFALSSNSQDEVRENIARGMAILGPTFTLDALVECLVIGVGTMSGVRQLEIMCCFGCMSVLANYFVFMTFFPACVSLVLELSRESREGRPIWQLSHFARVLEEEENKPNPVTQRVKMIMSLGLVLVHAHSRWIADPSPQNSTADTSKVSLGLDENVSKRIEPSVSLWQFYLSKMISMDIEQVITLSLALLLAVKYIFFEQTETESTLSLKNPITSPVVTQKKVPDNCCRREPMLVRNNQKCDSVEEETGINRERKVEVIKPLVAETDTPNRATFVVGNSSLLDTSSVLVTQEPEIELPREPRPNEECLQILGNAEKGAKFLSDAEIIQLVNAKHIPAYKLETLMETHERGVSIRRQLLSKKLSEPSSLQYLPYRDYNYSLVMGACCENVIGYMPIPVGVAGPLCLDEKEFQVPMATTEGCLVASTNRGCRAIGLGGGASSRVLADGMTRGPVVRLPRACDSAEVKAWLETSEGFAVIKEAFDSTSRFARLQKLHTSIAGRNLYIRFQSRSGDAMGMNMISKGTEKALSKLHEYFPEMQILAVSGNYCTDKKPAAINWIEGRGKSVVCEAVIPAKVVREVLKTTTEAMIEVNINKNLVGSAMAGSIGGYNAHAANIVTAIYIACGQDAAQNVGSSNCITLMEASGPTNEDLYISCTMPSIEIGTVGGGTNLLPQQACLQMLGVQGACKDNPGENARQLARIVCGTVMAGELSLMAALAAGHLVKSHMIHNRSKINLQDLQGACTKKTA
Description: Inhibition of human HMG-CoA reductase catalytic domain at 100 uM using HMG-CoA as substrate in presence of NADPH by colorimetric method relative to control.

For data set [2], the system named is Rattus norvegicus. Description: Antihyperlipidemic activity in po dosed triton WR-1339 induced Charles Foster rat hyperlipidemia model assessed as increase in HDL-C level in serum administered simultaneously with triton WR-1339 after 18 hrs by enzymatic method relative to control. It is filed as functional, organism-based.
For data set [3], the system named is Rattus norvegicus. Description: Hypolipidemic activity in HFD-induced Charles Foster rat assessed as reduction in serum VLDL-TG at 100 mg/kg administered as single dose via oral gavage for 30 days simultaneously with high fat diet. The data set is classed as functional, organism-based.
Data set [4] can be described thus: Cmax in Sprague-Dawley rat at 100 mg/kg, po administered as single dose by LC-MS/MS analysis. It is filed as ADME, organism-based. Details: dose 100 mg/kg, route oral. The note with it: in vivo.
Data set [5] concerns Rattus norvegicus. Briefly: Hypolipidemic activity in HFD-induced Charles Foster rat assessed as increase in serum HDL-TG at 100 mg/kg administered as single dose via oral gavage for 30 days simultaneously with high fat diet. It is filed as functional, organism-based.
For data set [6], the system named is Rattus norvegicus. Briefly: Antihyperlipidemic activity in triton WR-1339 induced Charles Foster rat hyperlipidemia model assessed as increase in HDL-C level in serum at 50 mg/kg, po administered simultaneously with triton WR-1339 after 18 hrs by enzymatic method relative to control. The data set is classed as functional.
Data set [7] deals with T1, 3-hydroxy-3-methylglutaryl-coenzyme A reductase (Homo sapiens). Briefly: Inhibition of human HMG-CoA reductase catalytic domain using HMG-CoA as substrate in presence of NADPH by colorimetric method.

As usually defined, the inhibition is the percentage by which the read-out fell short of the control. For orientation: Cmax means the maximum level reached in the sampled fluid or tissue. Consider `COc1ccc(-c2cc3cc(C(c4c[nH]c5ccccc45)c4c[nH]c5ccccc45)cc(C(C)(C)C)c3oc2=O)cc1OC`, for which the inhibition in data set [1] was 81%; in data set [7], “Dose-dependent effect”. Besides, the Activity entry in the data set on Rattus norvegicus [2] was “Dose-dependent effect”; in the data set on Rattus norvegicus [6], 15%. Also, the outcome in the data set on Rattus norvegicus [3] and in the data set with Rattus norvegicus [5] was Active. The Cmax in data set [4] is 79 ng/mL.
